Results reported in patent publication US11667602B2, “Compounds and their use” (AstraZeneca AB, priority 2020, dated 2023).
≈ marks a conversion by molar mass, not a printed value. Like-named read-outs stand apart in the source and are kept apart here.

Experiments:
[1] = Solubility (Test F); format: physicochemical; conditions: arithmetic mean if run multiple times
Method: The assay was conducted according to the Solubility Assay described in pages 164-167 of Wernevik, J. et al., “A Fully Integrated Assay Panel for Early Drug Metabolism and Pharmacokinetics Profiling”, Assay and Drug Development Technologies, 2020, 18(4), 157-179. Data are reported in Table 36 as solubility ([…]. Where the assay was run multiple times for the same compound, the arithmetic mean is reported.

[2] = Human Hepatocyte Stability (Test D); format: in vitro ADME; conditions: cryopreserved pooled human hepatocytes (LiverPool 10-Donor), geometric mean if run multiple times
Outline: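 Pooled 10-donor cryopreserved human hepatocytes (≥80% viable) in L-15 medium at 0.25×10^6 cells per 0.25 mL well. Compound added from 100 μM acetonitrile solution; incubated at 37 °C with shaking, acetonitrile-quenched, LC-MS analysed. Clint (μL/min/10^6 cells) from ln % parent vs time slope; geometric mean of repeat runs.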

[3] = Human Plasma Protein Binding (Test B); format: in vitro ADME; conditions: fraction unbound (fu)
Outline: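 Human plasma protein binding run per the published Wernevik et al. (2020) integrated DMPK panel protocol. Values are fraction unbound (fu, % free); repeat runs averaged arithmetically.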

[4] = biological target: T1, human RXFP1 (Homo sapiens, UniProt Q9HBX9); assay: RXFP1 Hu cAMP (Test A); format: cell-based; design: expressed in transfected cells; host or cells: Jump-In T-REx CHO-K1 cells (ThermoFisher), induced with 10 ng/ml doxycycline for 24 h
T1 sequence (Q9HBX9 1-757): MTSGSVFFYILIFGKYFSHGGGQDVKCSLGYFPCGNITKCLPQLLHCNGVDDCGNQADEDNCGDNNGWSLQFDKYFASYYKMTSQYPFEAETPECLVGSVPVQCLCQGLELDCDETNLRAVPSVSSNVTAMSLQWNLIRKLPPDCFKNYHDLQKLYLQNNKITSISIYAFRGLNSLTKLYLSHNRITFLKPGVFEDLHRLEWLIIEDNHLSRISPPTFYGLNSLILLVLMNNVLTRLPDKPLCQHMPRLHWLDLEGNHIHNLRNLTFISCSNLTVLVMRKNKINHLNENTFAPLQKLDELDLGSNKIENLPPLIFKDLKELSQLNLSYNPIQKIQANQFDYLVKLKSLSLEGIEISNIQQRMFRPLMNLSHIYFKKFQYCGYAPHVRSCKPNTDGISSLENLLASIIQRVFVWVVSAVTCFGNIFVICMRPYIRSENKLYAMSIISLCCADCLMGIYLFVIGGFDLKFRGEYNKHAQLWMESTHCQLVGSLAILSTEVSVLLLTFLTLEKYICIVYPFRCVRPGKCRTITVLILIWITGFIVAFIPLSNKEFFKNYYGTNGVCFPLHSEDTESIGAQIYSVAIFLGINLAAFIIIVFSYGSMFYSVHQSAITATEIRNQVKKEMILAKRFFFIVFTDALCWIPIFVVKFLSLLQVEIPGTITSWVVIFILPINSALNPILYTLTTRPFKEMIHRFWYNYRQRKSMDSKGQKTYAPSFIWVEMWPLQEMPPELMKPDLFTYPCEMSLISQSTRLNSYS
Outline: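 CHO-K1 (Jump-In T-REx), RXFP1 induced w/ 10 ng/ml doxycycline 24 h, cryopreserved. 0.5 mM IBMX final. cAMP by HTRF, 2 h RT, std curve.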

[5] = Human Liver Microsomal Stability (Test C); format: in vitro ADME
Outline: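 Human liver microsome incubation per the Wernevik et al. integrated DMPK panel protocol. Intrinsic clearance reported as CLint in μl/min/mg protein, averaged arithmetically over repeat runs.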

[6] = Rat Hepatocyte Stability (Test E); format: in vitro ADME; conditions: geometric mean if run multiple times
Outline: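 Run per the published AstraZeneca-type rat hepatocyte stability protocol (Wernevik et al. panel). Values are mean intrinsic clearance, Clint in μl/min/10^6 cells; geometric mean used for repeated runs.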

[7] = RXFP1 Hu cAMP, read-out: Test A EC50

Compound	solubility [1]	hepatocyte CLint at 1 µM ([2]; human)	Test B Human Plasma Protein Binding (% free) [3]	Test A Sinf ([4]; RXFP1 Hu cAMP)	EC50 [4, 7]	microsomal CLint ([5]; human, liver microsomes)	hepatocyte CLint ([6]; rat, hepatocytes)	hepatocyte CLint at 1 µM [2]	EC50 ([4]; Test A EC50, RXFP1 Hu cAMP)	microsomal CLint ([5]; human liver microsomes)	hepatocyte CLint ([6]; rat hepatocytes)
CC(C)Oc1cc(F)c(O[C@H]2CC[C@@](CO)(C(=O)O)CC2)cc1C(=O)N[C@@H]1[C@H]2CC[C@H](C2)[C@@H]1C(=O)NCC1(C)CCC1 [Example 486, (1S,4s)-4-(2-Fluoro-4-isopropoxy-5-(((1S,2R,3S,4R)-3-(((1-methylcyclobutyl)methyl)carbamoyl)bicyclo[2.2.1]heptan-2-yl)carbamoyl)phenoxy)-1-(hydroxymethyl)cyclohexane-1-carboxylic acid]	950 µM (≈ 559 µg/mL)	22 µL/min/1e6 cells	6.8 % free	107%	7.6 nM	35 µL/min/mg	28 µL/min/1e6 cells				
COC[C@]1(C(=O)O)CC[C@@H](Oc2cc(C(=O)N[C@@H]3[C@H]4CC[C@H](C4)[C@@H]3C(=O)Nc3cccc(S(=O)(=O)C(F)(F)F)c3)c(OC)cc2F)CC1 [Example 482]	> 1000 µM	18 µL/min/1e6 cells	1.5 % free	112%	11 nM	56 µL/min/mg	78 µL/min/1e6 cells				
COc1cc(F)c(-c2ccc(CCS(N)(=O)=O)cc2)cc1C(=O)N[C@H]1[C@H]2CC[C@H](C2)[C@H]1C(=O)Nc1cccc(S(=O)(=O)C(F)(F)F)c1 (single isomer, unassigned) [Example 326]	8 µM (≈ 5.58 µg/mL)	8 µL/min/1e6 cells	<0.35 % free	114%	110 nM	65 µL/min/mg	4.6 µL/min/1e6 cells				
COc1cc(C#N)c(O[C@H]2CC[C@@](C)(C(=O)O)CC2)cc1C(=O)N[C@@H]1[C@H]2CC[C@H](C2)[C@@H]1C(=O)NCC(F)(F)C(F)(F)F [Example 102]	820 µM (≈ 493 µg/mL)	1.9 µL/min/1e6 cells	12 % free	122%	160 nM	4.4 µL/min/mg	14 µL/min/1e6 cells				
CCC(C)(C)CNC(=O)[C@H]1[C@@H]2CC[C@@H](C2)[C@H]1NC(=O)c1cc(O[C@H]2CC[C@@](C)(C(=O)O)CC2)c(F)cc1OC [Example 37, (1S,4s)-4-(5-(((1S,2R,3S,4R)-3-((2,2-Dimethylbutyl)carbamoyl)bicyclo[2.2.1]heptan-2-yl)carbamoyl)-2-fluoro-4-methoxyphenoxy)-1-methylcyclohexane-1-carboxylic acid]	830 µM (≈ 454 µg/mL)	4.8 µL/min/1e6 cells	3.8 % free	103%	20 nM	27 µL/min/mg	22 µL/min/1e6 cells				
COc1cc(C#N)c(OC2CCC(C)(C(=O)O)CC2)cc1C(=O)NC1C(C(=O)NCC2(C)CCC2)C2CCC1N2CCC(F)(F)F (single isomer, unassigned) [Example 536, (1R,4s)-4-(2-Cyano-4-methoxy-5-(((1S*,2S*,3R*,4R*)-3-(((1-methylcyclobutyl)methyl)carbamoyl)-7-(3,3,3-trifluoropropyl)-7-azabicyclo[2.2.1]heptan-2-yl)carbamoyl)phenoxy)-1-methylcyclohexane-1-carboxylic acid]	420 µM (≈ 272 µg/mL)		3.3 % free	97%				130 µL/min/1e6 cells	5.1 nM	250 µL/min/mg	43 µL/min/1e6 cells
COc1cc(C#N)c(O[C@H]2CC[C@@](C)(C(=O)O)CC2)cc1C(=O)N[C@@H]1[C@H]2CC[C@H](C2)[C@@H]1C(=O)NCC(C)(C)C(F)(F)F [Example 624]	1000 µM (≈ 594 µg/mL)	3.3 µL/min/1e6 cells	12 % free	113%	26 nM	16 µL/min/mg	7.9 µL/min/1e6 cells				
COc1cc(C#N)c(-c2ccc(OCC(=O)O)cc2)cc1C(=O)N[C@@H]1[C@H]2CC[C@H](C2)[C@@H]1C(=O)Nc1cccc(S(=O)(=O)C(F)(F)F)c1 [Example 329, 2-((2′-Cyano-4′-methoxy-5′-(((1S,2R,3S,4R)-3-((3-((trifluoromethyl)sulfonyl)phenyl)carbamoyl)bicyclo[2.2.1]heptan-2-yl)carbamoyl)-[1,1′-biphenyl]-4-yl)oxy)acetic acid]	1000 µM (≈ 672 µg/mL)	5.6 µL/min/1e6 cells	0.81 % free	108%	140 nM	30 µL/min/mg	26 µL/min/1e6 cells				
COc1c(C#N)cc(O[C@H]2CC[C@@](C)(C(=O)O)CC2)cc1C(=O)N[C@@H]1[C@H]2CC[C@H](C2)[C@@H]1C(=O)NCC1(C)CCC1 [Example 404]	1000 µM (≈ 552 µg/mL)	11 µL/min/1e6 cells	2.3 % free			50 µL/min/mg	19 µL/min/1e6 cells		86 nM		
COc1cc(F)c(Oc2ccc(C(=O)O)cc2)cc1C(=O)N[C@H]1[C@@H](C(=O)Nc2cccc(S(=O)(=O)C(F)(F)F)c2)[C@@H]2C=C[C@H]1C2 (racemic) [Example 484]	400 µM (≈ 259 µg/mL)	7.2 µL/min/1e6 cells	<0.31 % free	101%	250 nM	9.4 µL/min/mg	13 µL/min/1e6 cells				
COc1cc(F)c(O[C@H]2CC[C@@](C)(C(=O)O)CC2)cc1C(=O)Nc1ccccc1C(=O)NCC(C)(C)C [Example 142, (1s,4s)-4-(2-Fluoro-4-methoxy-5-((2-(neopentylcarbamoyl)phenyl)-carbamoyl)phenoxy)-1-methylcyclohexane-1-carboxylic acid]	6.5 µM (≈ 3.34 µg/mL)	3.3 µL/min/1e6 cells	1.2 % free	129%	320 nM	< 3 µL/min/mg	9.8 µL/min/1e6 cells				
COc1cc(F)c(O[C@H]2C[C@H](C(=O)O)C2)cc1C(=O)NC1[C@H]2CC[C@H](C2)[C@@H]1C(=O)Nc1cccc(S(=O)(=O)C(F)(F)F)c1 (stereo partly shown) [Example 443]	760 µM (≈ 478 µg/mL)	26 µL/min/1e6 cells	1.5 % free	101%	540 nM	31 µL/min/mg	21 µL/min/1e6 cells				
COc1cc(C#N)c(O[C@H]2CC[C@@](C)(C(=O)O)CC2)cc1C(=O)NC1C2CCC(O2)C1C(=O)NCC1(C)CCC1 (single isomer, unassigned) [Example 534, (1R,4s)-4-(2-Cyano-4-methoxy-5-(((1S*,2S*,3R*,4R*)-3-(((1-methylcyclobutyl)methyl)carbamoyl)-7-oxabicyclo[2.2.1]heptan-2-yl)carbamoyl)phenoxy)-1-methylcyclohexane-1-carboxylic acid]	> 1000 µM	43 µL/min/1e6 cells	7.1 % free	106%	99 nM	16 µL/min/mg	19 µL/min/1e6 cells				
COc1cc(F)c(O[C@H]2CC[C@@](C)(C(=O)O)CC2)cc1C(=O)N[C@H]1[C@@H](C(=O)NCC2(C)CCC2)[C@@H]2C=C[C@H]1C2 [Example 417]	900 µM (≈ 488 µg/mL)	5.1 µL/min/1e6 cells	4.8 % free	102%	9.8 nM	24 µL/min/mg	17 µL/min/1e6 cells				
